Assay results reported in patent publication US20100029654A1, “CARDIOVASCULAR COMPOSITIONS AND USE OF THE SAME FOR THE TREATMENT OF ALZHEIMER'S DISEASE” (MOUNT SINAI SCHOOL OF MEDICINE, priority 2006, published 2010).
Several values for one entry are separate records, joined by “and”; a condition that tells them apart may be missing. Identical values can stand only once. Counter-ions that a name gives are not always drawn. Like-named read-outs stand apart in the source and are kept apart here.

Assays:
Aβ1-42 [1] = assay: Aβ1-42 content in conditioned medium of primary cortico-hippocampal neuron cultures from Tg2576 mice (ELISA; primary and secondary dose-response screening); assay type: cell-based, mouse; details: for EC50 / activity at 100 µM: Mus musculus; for EC50: Neuron; for activity at 100 µM: primary screening, drug 100 μM, Tg2576 neuron cultures, table sorted by Aβ1-42, read-out: Ab1-42 (% of ctl)
Aβ1-40 = Aβ1-40 content in conditioned medium of primary cortico-hippocampal neuron cultures from Tg2576 mice (ELISA; primary and secondary dose-response screening); assay type: cell-based, mouse; details: for activity at 100 µM / Ab1-40 (% of ctl): drug 100 μM; for activity at 100 µM: read-out: Ab1-40 (% of ctl); for reduced Aβ1-40: <85% of ctl
Outline: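 Primary cortico-hippocampal neurons from embryonic Tg2576 mice were plated at 1.0×10^5 cells per well on poly-D-lysine-coated 96-well plates in Neurobasal with 2% B27, 0.5 mM L-glutamine and 1% penicillin-streptomycin. Cultures received drug in 1% DMSO, and Aβ1-40 in the conditioned medium was measured by BioSource ELISA 24 hours after treatment, relative to vehicle controls.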

Aβ1-42 [2] = assay: Aβ1-42 content in conditioned medium of primary cortico-hippocampal neuron cultures from Tg2576 mice (ELISA; primary and secondary dose-response screening); assay type: cell-based, mouse; details: for activity at 100 µM: Mus musculus, Neuron, 24 h, read-out: Ab1-42 (% of ctl); for activity at 100 µM / Ab1-42 (% of ctl): drug 100 μM; for reducing Aβ1-42: <85% of ctl
Outline: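 Primary cortico-hippocampal neurons from embryonic Tg2576 mouse brain were seeded on poly-D-lysine-coated 96-well plates at 1.0×10^5 cells per well in serum-free Neurobasal medium with 2% B27, 0.5 mM L-glutamine and 1% penicillin-streptomycin. For primary screening, duplicate wells received 100 μM drug (1% DMSO final). Vehicle-treated cultures served as controls, and Aβ1-42 in conditioned medium was measured by commercial ELISA.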

[3] = system: primary cortico-hippocampal neuron cultures; assay: MTT in primary screening
[4] = system: primary cortico-hippocampal neuron cultures; assay: lactate dehydrogenase (LDH) activity assay in parallel neuron cultures; details: for LDH (at 5F-5 M): Table IV; for LDH at E-5M % of change: drug at E-5M
Method: For in vitro treatments drugs available from “The Spectrum Collection” in stocks of 10 mM in DMSO were applied directly to cultures to the desired concentrations (final 1% DMSO); control primary neuron cultures from Tg2576 embryos were treated with vehicle resulting in a final 1% DMSO.
Cell viability was assessed using a commercial available LDH assay kit according to the manufacture's instruction (Promega).

[5] = 24 h, secondary dose-response screening 0.01-100 μM, 24 hours, read-out: EC50 (molar) Aβ1-42
[6] = Table IV, dose-response 0.01-100 μM, read-out: EC50 (M): Ab-lowering activity
[7] = Mus musculus, Neuron, 24 h, Primary Screening, table sorted by Aβ1-40
[8] = Mus musculus, Neuron, 24 h, primary screening, Tg2576 neuron cultures, table sorted by Aβ1-42
[9] = Mus musculus, Neuron, Table IV, dose-response 0.01-100 μM, read-out: EC50 (M): Ab-lowering activity Abeta1-40
[10] = Mus musculus, Neuron, secondary dose-response screening 0.01-100 μM, 24 hours, read-out: EC50 (molar) Aβ1-40
[11] = Primary Screening, table sorted by Aβ1-40
[12] = primary screening, Tg2576 neuron cultures, table sorted by Aβ1-42
[13] = primary screening, table sorted by Aβ1-42
[14] = Mus musculus, 24 h, primary screening, Tg2576 neuron cultures, table sorted by Aβ1-42
[15] = secondary dose-response screening 0.01-100 μM, 24 hours
[16] = Primary Screening, table sorted by Aβ1-40, Hydrochloride
[17] = primary screening, table sorted by Aβ1-42, Hydrochloride
[18] = 24 h, conditioned medium of primary cortico-hippocampal neuron cultures from Tg2576 embryos, 24 hours after treatment, relative to vehicle (1% DMSO) control, read-out: EC50 (molar) Aβ1-42

Row | Structure (SMILES) | EC50 (Aβ1-42 [1]; [5]) [M] | activity at 100 µM (Aβ1-40; [7]) [%] | activity at 100 µM (Aβ1-40; [8]) [%] | EC50 (Aβ1-40; [10]) [M] | reduced Aβ1-40 (Aβ1-40; primary screening) | activity at 100 µM (Aβ1-42 [2]; [11]) [%] | activity at 100 µM (Aβ1-42 [2]; [12]) [%] | reducing Aβ1-42 (Aβ1-42 [2]; primary screening) | MTT (% of ctl) [3, 11] | MTT (% of ctl) [3, 13] | LDH (% of ctl) [4, 11] | LDH at E-5M % of change [4] [%] | LDH (% of ctl) [4, 13] | activity at 100 µM (Aβ1-42 [1]; 24 h) [%] | activity at 100 µM (Aβ1-40; [14]) [%] | Ab1-40 (% of ctl) (Aβ1-40; [11]) | Ab1-42 (% of ctl) (Aβ1-42 [2]; [11]) | further results
1 | N=C(N)NC(=O)c1nc(Cl)c(N)nc1N [Amiloride Hydrochloride] | 0.039 | 77.5 | 77.5 | 8.67e-05 | reduced Aβ1-40 | 47.1 | 47.1 | useful in reducing Aβ1-42 | 80.8 % of ctl | 80.8 % of ctl | 104.7 % of ctl | 6.4 | 104.7 % of ctl |  |  |  |  | EC50 (Aβ1-42 [1]; [6]): 3.01e-05 M; EC50 (Aβ1-40; [9]): 8.67e-05 M; LDH (at 5F-5 M) [4]: no change
2 | COc1cc2c3cc1Oc1c(OC)c(OC)cc4c1[C@@H](Cc1cccc(c1)Oc1ccc(c(O)c1)C[C@@H]3N(C)CC2)N(C)CC4 [Berbamine Hydrochloride] |  |  |  |  |  |  |  |  | 97.6 % of ctl | 97.6 % of ctl | 129.1 % of ctl |  | 129.1 % of ctl | 151 | 119 | 119.1 % of ctl | 150.6 % of ctl | 
3 | CC(COc1ccccc1)NC(C)C(O)c1ccc(O)cc1 (stereo not drawn) [Isoxsuprine Hydrochloride] | 8.07e-06 | 78.3 | 78.3 |  | reduced Aβ1-40 | 83.7 | 83.7 | useful in reducing Aβ1-42 |  |  |  | 5.0 |  |  |  |  |  | EC50 (molar) Aβ1-40 (Aβ1-40; [15]): no fit; MTT (% of ctl) [3, 16]: 99.8 % of ctl and 93.1 % of ctl; MTT (% of ctl) [3, 17]: 99.8 % of ctl and 93.1 % of ctl; LDH (% of ctl) [4, 16]: 106.2 % of ctl and 107.7 % of ctl; LDH (% of ctl) [4, 17]: 106.2 % of ctl and 107.7 % of ctl
4 | CC[C@@H](C)C(=O)O[C@H]1[C@H](O)[C@H]2[C@@H](CN3C[C@@H](C)CC[C@H]3[C@@]2(C)O)[C@@H]2C[C@]34O[C@]5(O)[C@@H](OC(=O)[C@](C)(O)[C@@H](C)O)CC[C@@]3(C)[C@@H]5[C@@H](OC(C)=O)[C@@H](OC(C)=O)[C@H]4[C@@]21O (stereo in doubt) [Protoveratrine B] |  |  |  |  | reduced Aβ1-40 |  |  |  | 58.5 % of ctl | 58.5 % of ctl | 729.8 % of ctl | −2.5 | 729.8 % of ctl |  |  | 61.8 % of ctl | 93.3 % of ctl | EC50 (molar) Aβ1-42 (Aβ1-42 [1]; [15]): no fit; Ab1-40 (% of ctl) (Aβ1-40; [12]): 61.8 % of ctl; EC50 (Aβ1-40; secondary dose-response screening 0.01-100 μM, 24 hours, read-out: EC50 (molar) Aβ1-40): 6.73e-06 M; Ab1-42 (% of ctl) (Aβ1-42 [2]; [12]): 93.3 % of ctl
5 | NCCCCCC(=O)O [Aminocaproic Acid] |  |  |  |  |  |  |  |  | 80.3 % of ctl | 80.3 % of ctl | 90.4 % of ctl |  | 90.4 % of ctl | 184 | 124 | 124.4 % of ctl | 184.3 % of ctl | 
6 | CCCCCCCCNC(C)C(O)c1ccc(SC(C)C)cc1 (stereo not drawn) [Suloctidil] | 2.13e-05 | 1.8 | 1.8 | 1.45e-05 | reduced Aβ1-40 | 4.6 | 4.6 | useful in reducing Aβ1-42 | 77.7 % of ctl | 77.7 % of ctl | 396.1 % of ctl | −3.4 | 396.1 % of ctl |  |  |  |  | 
7 | Cc1ccc(N(CC2=NCCN2)c2cccc(O)c2)cc1 [Phentolamine Hydrochloride] | 8.65e-08 | 83.4 | 83.4 | 1.21e-05 | reduced Aβ1-40 | 72.9 | 72.9 | useful in reducing Aβ1-42 | 110.3 % of ctl | 110.3 % of ctl | 90.7 % of ctl | −3.4 | 90.7 % of ctl |  |  |  |  | 
8 | Cc1cc(C(C)(C)C)cc(C)c1CC1=NCCN1 [Xylometazoline Hydrochloride] |  |  |  |  | reduced Aβ1-40 |  |  | useful in reducing Aβ1-42 | 88.2 % of ctl | 88.2 % of ctl | 110.8 % of ctl |  | 110.8 % of ctl | 71.8 | 66.6 | 66.6 % of ctl | 71.8 % of ctl | 
9 | COC(=O)C1=C(C)NC(C)=C(C(=O)OC)C1c1ccccc1[N+](=O)[O-] [Nifedipine] | 7.36e-08 | 73.4 | 73.4 |  |  | 90.6 | 90.6 |  | 98.7 % of ctl | 98.7 % of ctl | 76.1 % of ctl | 12.0 | 76.1 % of ctl |  |  |  |  | EC50 (Aβ1-42 [1]; [18]): 7.36e-08 M
10 | NCCc1cc(O)c(O)cc1O [Oxidopamine Hydrochloride] |  |  |  |  | reduced Aβ1-40 |  |  | useful in reducing Aβ1-42 | 121.5 % of ctl | 121.5 % of ctl | 103.6 % of ctl |  | 103.6 % of ctl | 36.4 | 43.8 | 43.8 % of ctl | 36.4 % of ctl | 
11 | COc1cc2nc(N3CCN(C(=O)c4ccco4)CC3)nc(N)c2cc1OC [Prazosin Hydrochloride] | 6.76e-05 | 7.6 | 7.6 | 0.000571 | reduced Aβ1-40 | 23.2 | 23.2 | useful in reducing Aβ1-42 | 99.9 % of ctl | 99.9 % of ctl | 260.2 % of ctl | 5.0 | 260.2 % of ctl |  |  |  |  | EC50 (Aβ1-42 [1]; [18]): 6.76e-05 M
12 | CC(COc1ccccc1)N(CCCl)Cc1ccccc1 (stereo not drawn) [Phenoxybenzamine Hydrochloride] |  |  |  |  |  |  |  |  | 72.8 % of ctl | 72.8 % of ctl | 81.3 % of ctl |  | 81.3 % of ctl | 90.7 | 87.5 | 87.5 % of ctl | 90.7 % of ctl | 
13 | COc1ccccc1OCCNCC(O)COc1cccc2[nH]c3ccccc3c12 (stereo not drawn) [Carvedilol] | 0.000132 | 38.3 | 38.3 | 6.61e-05 | reduced Aβ1-40 | 30.8 | 30.8 | useful in reducing Aβ1-42 | 66.7 % of ctl | 66.7 % of ctl | 148.6 % of ctl |  | 148.6 % of ctl |  |  |  |  | EC50 (Aβ1-42 [1]; [18]): 0.000132 M; EC50 (Aβ1-42 [1]; [6]): 0.000132 M; EC50 (Aβ1-40; [9]): 6.61e-05 M; LDH (at 5F-5 M) [4]: no change
14 | CC(C)N(CCC(C(N)=O)(c1ccccc1)c1ccccn1)C(C)C (stereo not drawn) [Disopyramide Phosphate] | 5.33e-05 | 83.5 | 83.5 |  | reduced Aβ1-40 | 66.3 | 66.3 | useful in reducing Aβ1-42 | 71.2 % of ctl | 71.2 % of ctl | 125.8 % of ctl | −3.7 | 125.8 % of ctl |  |  |  |  | EC50 (Aβ1-40; Mus musculus, Neuron, 24 h, read-out: EC50 (molar) Aβ1-40): 7.78e-10 M
